Calls of active or inactive are those of the source. No cut-off for these calls is given here.
Experiments:
CCRF-CEM [1] = assay: Selectivity ratio of IC50 for taxol-resistant human CCRF-CEM cells to IC50 for human CCRF-CEM cells; type: functional
CCRF-CEM [2] = assay: Selectivity ratio of IC50 for vinblastine-resistant human CCRF-CEM cells to IC50 for human CCRF-CEM cells; type: functional
CCRF-CEM [3] = assay: Cytotoxicity against taxol-resistant human CCRF-CEM cells after 72 hrs by XTT assay; type: functional, cell-based
MX1 = assay: Cytotoxicity against human MX1 cells after 72 hrs by SRB assay; type: functional, cell-based; conditions: MX1, 72 h
CCRF-CEM [4] = assay: Cytotoxicity against human CCRF-CEM cells after 72 hrs by XTT assay; type: functional, cell-based
HCT-116 = assay: Cytotoxicity against human HCT116 cells after 72 hrs by SRB assay; type: functional, cell-based; conditions: HCT-116, 72 h
CCRF-CEM [5] = assay: Cytotoxicity against vinblastine-resistant human CCRF-CEM cells after 72 hrs by XTT assay; type: functional, cell-based
Nucleic Acid [6] = assay: Binding affinity to pEGFP-N1 DNA assessed as formation of interstrand cross-links with DNA by alkaline gel shift assay; type: nucleic-acid assay
[7] = Cytotoxicity against human CL1-5 cells after 72 hrs by alamar blue assay; type: functional, cell-based; conditions: CL1-5, 72 h
PC-3 = assay: Cytotoxicity against human PC3 cells after 72 hrs by alamar blue assay; type: functional, cell-based; conditions: PC-3, 72 h
[8] = Cytotoxicity against human H1299 cells after 72 hrs by alamar blue assay; type: functional, cell-based; conditions: NCI-H1299, 72 h
[9] = Cytotoxicity against human CL1-0 cells after 72 hrs by alamar blue assay; type: functional, cell-based; conditions: CL1-0, 72 h
MCF7 = assay: Cytotoxicity against human MCF7 cells after 72 hrs by alamar blue assay; type: functional, cell-based; conditions: MCF7, 72 h
Nucleic Acid [10] = assay: Binding affinity to DNA in human H1299 cells assessed as formation of DNA cross-links at 200 uM followed by irradiation by modified single cell gel electrophoresis comet assay; type: cell-based

SMILES: CC[C@]1(O)C[C@@H]2CN(CCc3c([nH]c4ccccc34)[C@@](C(=O)OC)(c3cc4c(cc3OC)N(C)[C@H]3[C@@](O)(C(=O)OC)[C@H](OC(C)=O)[C@]5(CC)C=CCN6CC[C@]43[C@@H]65)C2)C1 [VINBLASTINE]
- Ratio IC50 (CCRF-CEM [1]): 106.2
- Ratio IC50 (CCRF-CEM [2]): 679.5

SMILES: O=C(Nc1ccc(N(CCCl)CCCl)cc1)Nc1cc(-c2ccccc2)nc2cc3c(cc12)OCO3
- IC50 (CCRF-CEM [3]): 2230 nM
- IC50 (MX1): 7410 nM
- Ratio IC50 (CCRF-CEM [1]): 0.99
- IC50 (CCRF-CEM [4]): 2250 nM
- IC50 (HCT-116): 9920 nM
- Ratio IC50 (CCRF-CEM [2]): 0.82
- IC50 (CCRF-CEM [5]): 1840 nM

SMILES: COc1cccc(-c2cc(NC(=O)NNc3ccc(N(CCCl)CCCl)cc3)c3cc(Cl)ccc3n2)c1
- IC50 (CCRF-CEM [3]): 2250 nM
- IC50 (MX1): 14600 nM
- Ratio IC50 (CCRF-CEM [1]): 3.08
- IC50 (CCRF-CEM [4]): 732 nM
- IC50 (HCT-116): 13900 nM
- Ratio IC50 (CCRF-CEM [2]): 2.91
- IC50 (CCRF-CEM [5]): 2130 nM

SMILES: O=C(Nc1ccc(N(CCCl)CCCl)cc1)Nc1cc(-c2ccccc2F)nc2ccc(N3CCCC3)cc12
- IC50 (CCRF-CEM [3]): 39900 nM
- IC50 (MX1): 115000 nM
- Ratio IC50 (CCRF-CEM [1]): 5.22
- IC50 (CCRF-CEM [4]): 7650 nM
- IC50 (HCT-116): 44200 nM
- Ratio IC50 (CCRF-CEM [2]): 1.62
- IC50 (CCRF-CEM [5]): 12400 nM

SMILES: O=C(NNc1ccc(N(CCCl)CCCl)cc1)Nc1cc(-c2ccccc2)nc2cc3c(cc12)OCO3
- IC50 (CCRF-CEM [3]): 574 nM
- IC50 (MX1): 1020 nM
- Ratio IC50 (CCRF-CEM [1]): 2.22
- IC50 (CCRF-CEM [4]): 258 nM
- IC50 (HCT-116): 2020 nM
- Ratio IC50 (CCRF-CEM [2]): 1.92
- IC50 (CCRF-CEM [5]): 495 nM

SMILES: O=C(NNc1ccc(N(CCCl)CCCl)cc1)Nc1cc(-c2ccccc2)nc2ccccc12
- IC50 (CCRF-CEM [3]): 908 nM
- IC50 (MX1): 1780 nM
- Activity (Nucleic Acid [6]): Active
- IC50 [7]: 3010 nM
- Ratio IC50 (CCRF-CEM [1]): 1.57
- IC50 (CCRF-CEM [4]): 578 nM
- IC50 (PC-3): 10500 nM
- IC50 (HCT-116): 1260 nM
- Ratio IC50 (CCRF-CEM [2]): 2.11
- IC50 [8]: 4380 nM
- IC50 [9]: 4070 nM
- IC50 (MCF7): 6240 nM
- IC50 (CCRF-CEM [5]): 1220 nM

SMILES: CC(=O)O[C@H]1C(=O)[C@@]2(C)[C@H]([C@H](OC(=O)c3ccccc3)[C@]3(O)C[C@H](OC(=O)[C@H](O)[C@@H](NC(=O)c4ccccc4)c4ccccc4)C(C)=C1C3(C)C)[C@]1(OC(C)=O)CO[C@@H]1C[C@@H]2O [PACLITAXEL]
- Ratio IC50 (CCRF-CEM [1]): 330
- Ratio IC50 (CCRF-CEM [2]): 980

SMILES: N[C@@H](Cc1ccc(N(CCCl)CCCl)cc1)C(=O)O
- Activity (Nucleic Acid [10]): 39.7%

SMILES: COc1cccc(-c2cc(NC(=O)Nc3ccc(N(CCCl)CCCl)cc3)c3cc4c(cc3n2)OCO4)c1
- IC50 (CCRF-CEM [3]): 1960 nM
- IC50 (MX1): 20600 nM
- Ratio IC50 (CCRF-CEM [1]): 0.7
- IC50 (CCRF-CEM [4]): 2820 nM
- IC50 (HCT-116): 8870 nM
- Ratio IC50 (CCRF-CEM [2]): 0.79
- IC50 (CCRF-CEM [5]): 2220 nM

SMILES: COc1cccc(-c2cc(NC(=O)NNc3ccc(N(CCCl)CCCl)cc3)c3cc4c(cc3n2)OCO4)c1
- IC50 (CCRF-CEM [3]): 734 nM
- IC50 (MX1): 749 nM
- IC50 [7]: 4850 nM
- Ratio IC50 (CCRF-CEM [1]): 3.51
- IC50 (CCRF-CEM [4]): 209 nM
- IC50 (PC-3): 2980 nM
- IC50 (HCT-116): 1370 nM
- Ratio IC50 (CCRF-CEM [2]): 5.43
- IC50 [8]: 2050 nM
- IC50 [9]: 2870 nM
- IC50 (MCF7): 3350 nM
- IC50 (CCRF-CEM [5]): 1130 nM

SMILES: Cc1cc(NC(=O)Nc2ccc(N(CCCl)CCCl)cc2)c2cc(N3CCCC3)ccc2n1
- IC50 (CCRF-CEM [3]): 16900 nM
- IC50 (MX1): 16600 nM
- Ratio IC50 (CCRF-CEM [1]): 1.87
- IC50 (CCRF-CEM [4]): 9020 nM
- IC50 (HCT-116): 13400 nM
- Ratio IC50 (CCRF-CEM [2]): 1.43
- IC50 (CCRF-CEM [5]): 12900 nM
